# US20250242064A1, “CXCR4-TARGETING COMPOUNDS, AND METHODS OF MAKING AND USING THE SAME” (PROVINCIAL HEALTH SERVICES AUTHORITY, priority 2022, published 2025)
# Where a SMILES comes first, the peptide text is derived from it. Bridges are numbered along the chain shown (N, C = ends). [ ]: non-standard residue; d: D form. The star is where a group is joined. X3 = O=C(O)CN1CCN(CC(=O)O)CCN(CC(=O)N[C@@H](CS(=O)(=O)O)C(=O)N[C@@H](CCCCNC(=O)CCCc2ccc(Br)cc2)C(=O)*)CCN(CC(=O)O)CC1; 2Nal = N[C@@H](Cc1ccc2ccccc2c1)C(=O)O; Lys(iPr) = CC(C)NCCCC[C@H](N)C(=O)O
# Test: in vivo
# Design: species or system mice
# Conditions: male, mouse, iv, total radioactivity
# Method in brief: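 Male NRG mice bearing subcutaneous Z138 mantle cell lymphoma xenografts (5×10^6 cells, grown to 200-300 mm^3) injected intravenously under isoflurane with 68Ga-labelled tracers. Harvested tissues weighed and gamma-counted; uptake expressed as % ID/g.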
# [1] = NOD.Cg-Rag1tm1Mom Il2rgtm1Wjl/SzJ (NRG), Biodistribution: Adrenals
# [2] = NOD.Cg-Rag1tm1Mom Il2rgtm1Wjl/SzJ (NRG), Biodistribution: Blood
# [3] = NOD.Cg-Rag1tm1Mom Il2rgtm1Wjl/SzJ (NRG), Biodistribution: Bone
# [4] = NOD.Cg-Rag1tm1Mom Il2rgtm1Wjl/SzJ (NRG), Biodistribution: Brain
# [5] = NOD.Cg-Rag1tm1Mom Il2rgtm1Wjl/SzJ (NRG), Biodistribution: Heart
# [6] = NOD.Cg-Rag1tm1Mom Il2rgtm1Wjl/SzJ (NRG), Biodistribution: Kidneys
# [7] = NOD.Cg-Rag1tm1Mom Il2rgtm1Wjl/SzJ (NRG), Biodistribution: Liver
# [8] = NOD.Cg-Rag1tm1Mom Il2rgtm1Wjl/SzJ (NRG), Biodistribution: Lungs
# [9] = NOD.Cg-Rag1tm1Mom Il2rgtm1Wjl/SzJ (NRG), Biodistribution: Muscle
# [10] = NOD.Cg-Rag1tm1Mom Il2rgtm1Wjl/SzJ (NRG), Biodistribution: Pancreas
# [11] = NOD.Cg-Rag1tm1Mom Il2rgtm1Wjl/SzJ (NRG), Biodistribution: Small Intestine
# [12] = NOD.Cg-Rag1tm1Mom Il2rgtm1Wjl/SzJ (NRG), Biodistribution: Spleen
# [13] = NOD.Cg-Rag1tm1Mom Il2rgtm1Wjl/SzJ (NRG), Biodistribution: Stomach
# [14] = NOD.Cg-Rag1tm1Mom Il2rgtm1Wjl/SzJ (NRG), Biodistribution: Testes
# [15] = NOD.Cg-Rag1tm1Mom Il2rgtm1Wjl/SzJ (NRG), Biodistribution: Z138 Tumor
# [16] = NOD.Cg-Rag1tm1Mom Il2rgtm1Wjl/SzJ (NRG), Ratio Tumor-to-Blood
# [17] = NOD.Cg-Rag1tm1Mom Il2rgtm1Wjl/SzJ (NRG), Ratio Tumor-to-Bone
# [18] = NOD.Cg-Rag1tm1Mom Il2rgtm1Wjl/SzJ (NRG), Ratio Tumor-to-Kidney
# [19] = NOD.Cg-Rag1tm1Mom Il2rgtm1Wjl/SzJ (NRG), Ratio Tumor-to-Muscle
# [20] = NOD.Cg-Rag1tm1Mom Il2rgtm1Wjl/SzJ (NRG), Ratio Tumor-to-Pancreas
# [21] = NOD.Cg-Rag1tm1Momll2rgtm1Wjl/SzJ (NRG), Biodistribution: Blood
# [22] = NOD.Cg-Rag1tm1Momll2rgtm1Wjl/SzJ (NRG), Biodistribution: Stomach
# [23] = NOD.Cg-Rag1tm1Momll2rgtm1Wjl/SzJ (NRG), Biodistribution: Testes
# [24] = NOD.Cg-Rag1tm1Momll2rgtm1Wjl/SzJ (NRG), Ratio Tumor-to-Bone
# [25] = NOD.Cg-Rag1tm1Momll2rgtm1Wjl/SzJ (NRG), Ratio Tumor-to-Kidney
# [26] = NOD.Cg-Rag1tm1Momll2rgtm1Wjl/SzJ (NRG), Ratio Tumor-to-Muscle
# [27] = NOD.Cg-Rag1tm1Momll2rgtm1Wjl/SzJ (NRG), Ratio Tumor-to-Pancreas
structure (smiles),measurement,setting,value
"CC(C)NCCCC[C@H](NC(=O)[C@H]1CCC(=O)N[C@@H](CCCCNC(=O)[C@H](CCCCNC(=O)CCCc2ccc(Br)cc2)NC(=O)[C@H](CS(=O)(=O)O)NC(=O)CN2CCN(CC(=O)O)CCN(CC(=O)O)CCN(CC(=O)O)CC2)C(=O)N[C@@H](Cc2ccc(O)cc2)C(=O)N[C@@H](CCCCNC(C)C)C(=O)N[C@H](CCCNC(=N)N)C(=O)N[C@@H](Cc2ccc3ccccc3c2)C(=O)N[C@H](C)C(=O)N1)C(N)=O [[^177Lu]Lu-BL34L20, metal not drawn] (K(X3)Y[Lys(iPr)][dR][2Nal][dA][dE][Lys(iPr)]-NH2; lactam N-7)",tissue uptake at 1 h,[1],2.44 %ID/g
same,tissue uptake at 3 h,[1],2.29 %ID/g
same,tissue uptake at 24 h,[1],1.1 %ID/g
same,tissue uptake at 72 h,[1],0.81 %ID/g
same,tissue uptake at 120 h,[1],1.24 %ID/g
same,tissue uptake at 1 h,[2],14.1 %ID/g
same,tissue uptake at 3 h,[2],11.8 %ID/g
same,tissue uptake at 1 h,[3],1.02 %ID/g
same,tissue uptake at 3 h,[3],0.78 %ID/g
same,tissue uptake at 24 h,[3],0.29 %ID/g
same,tissue uptake at 72 h,[3],0.26 %ID/g
same,tissue uptake at 120 h,[3],0.3 %ID/g
same,tissue uptake at 1 h,[4],0.22 %ID/g
same,tissue uptake at 3 h,[4],0.2 %ID/g
same,tissue uptake at 24 h,[4],0.06 %ID/g
same,tissue uptake at 72 h,[4],0.03 %ID/g
same,tissue uptake at 120 h,[4],0.02 %ID/g
same,tissue uptake at 1 h,[5],3.05 %ID/g
same,tissue uptake at 3 h,[5],3.01 %ID/g
same,tissue uptake at 24 h,[5],0.76 %ID/g
same,tissue uptake at 72 h,[5],0.25 %ID/g
same,tissue uptake at 120 h,[5],0.18 %ID/g
same,tissue uptake at 1 h,[6],4.5 %ID/g
same,tissue uptake at 3 h,[6],3.98 %ID/g
same,tissue uptake at 24 h,[6],1.53 %ID/g
same,tissue uptake at 72 h,[6],0.4 %ID/g
same,tissue uptake at 120 h,[6],0.33 %ID/g
same,tissue uptake at 1 h,[7],2.8 %ID/g
same,tissue uptake at 3 h,[7],3.16 %ID/g
same,tissue uptake at 24 h,[7],0.84 %ID/g
same,tissue uptake at 72 h,[7],0.44 %ID/g
same,tissue uptake at 120 h,[7],0.19 %ID/g
same,tissue uptake at 1 h,[8],8.78 %ID/g
same,tissue uptake at 3 h,[8],6.6 %ID/g
same,tissue uptake at 24 h,[8],1.9 %ID/g
same,tissue uptake at 72 h,[8],0.68 %ID/g
same,tissue uptake at 120 h,[8],0.72 %ID/g
same,tissue uptake at 1 h,[9],1.13 %ID/g
same,tissue uptake at 3 h,[9],0.93 %ID/g
same,tissue uptake at 24 h,[9],0.27 %ID/g
same,tissue uptake at 72 h,[9],0.15 %ID/g
same,tissue uptake at 120 h,[9],0.08 %ID/g
same,tissue uptake at 1 h,[10],1.59 %ID/g
same,tissue uptake at 3 h,[10],1.25 %ID/g
same,tissue uptake at 24 h,[10],1.38 %ID/g
same,tissue uptake at 72 h,[10],0.12 %ID/g
same,tissue uptake at 120 h,[10],0.23 %ID/g
same,tissue uptake at 1 h,[11],1.16 %ID/g
same,tissue uptake at 3 h,[11],1.02 %ID/g
same,tissue uptake at 24 h,[11],0.53 %ID/g
same,tissue uptake at 72 h,[11],0.11 %ID/g
same,tissue uptake at 120 h,[11],0.08 %ID/g
same,tissue uptake at 1 h,[12],1.92 %ID/g
same,tissue uptake at 3 h,[12],1.86 %ID/g
same,tissue uptake at 24 h,[12],1.12 %ID/g
same,tissue uptake at 72 h,[12],0.95 %ID/g
same,tissue uptake at 120 h,[12],0.77 %ID/g
same,tissue uptake at 1 h,[13],0.52 %ID/g
same,tissue uptake at 3 h,[13],0.71 %ID/g
same,tissue uptake at 1 h,[14],1.78 %ID/g
same,tissue uptake at 3 h,[14],2.81 %ID/g
same,tissue uptake at 1 h,[15],5.94 %ID/g
same,tissue uptake at 3 h,[15],15.4 %ID/g
same,tissue uptake at 24 h,[15],27.4 %ID/g
same,tissue uptake at 72 h,[15],23.6 %ID/g
same,tissue uptake at 120 h,[15],23.6 %ID/g
same,tissue to tissue ratio at 1 h,[16],0.42
same,tissue to tissue ratio at 3 h,[16],1.3
same,tissue to tissue ratio at 24 h,[16],9.65
same,tissue to tissue ratio at 72 h,[16],53.9
same,tissue to tissue ratio at 120 h,[16],71.5
same,tissue to tissue ratio at 1 h,[17],3.63
same,tissue to tissue ratio at 3 h,[17],10.5
same,tissue to tissue ratio at 1 h,[18],1.32
same,tissue to tissue ratio at 3 h,[18],3.93
same,tissue to tissue ratio at 1 h,[19],5.29
same,tissue to tissue ratio at 3 h,[19],16.7
same,tissue to tissue ratio at 72 h,[19],234
same,tissue to tissue ratio at 1 h,[20],3.77
same,tissue to tissue ratio at 3 h,[20],12.6
same,tissue uptake at 24 h,[21],2.84 %ID/g
same,tissue uptake at 72 h,[21],0.45 %ID/g
same,tissue uptake at 120 h,[21],0.36 %ID/g
same,tissue uptake at 24 h,[22],0.41 %ID/g
same,tissue uptake at 72 h,[22],0.13 %ID/g
same,tissue uptake at 120 h,[22],0.07 %ID/g
same,tissue uptake at 24 h,[23],1.01 %ID/g
same,tissue uptake at 72 h,[23],0.65 %ID/g
same,tissue uptake at 120 h,[23],0.56 %ID/g
same,tissue to tissue ratio at 24 h,[24],45.3
same,tissue to tissue ratio at 72 h,[24],44.3
same,tissue to tissue ratio at 120 h,[24],27
same,tissue to tissue ratio at 24 h,[25],18
same,tissue to tissue ratio at 72 h,[25],60.3
same,tissue to tissue ratio at 120 h,[25],75.5
same,tissue to tissue ratio at 24 h,[26],102
same,tissue to tissue ratio at 120 h,[26],357
same,tissue to tissue ratio at 24 h,[27],70.9
same,tissue to tissue ratio at 72 h,[27],206
same,tissue to tissue ratio at 120 h,[27],257
